Source: PubChem BioAssay AID1845207 (Molecular Pharmacology Branch, DTP, NCI, 2023)
pIC50: −log10 of the molar value.

Test system: NCI-H1876 tumor spheroid viability
Experiment: Anticancer human tumor NCI-H1876 cell line growth inhibition;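 further: spheroids exposed to compounds for seven days before the viability read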;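 on viability, T/C: percent of DMSO vehicle control viability so 100% = vehicle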
Details: spheroids with HUVEC and MSC; for pIC50: curve of first compound; for viability, T/C: stronger effect = lower value; active means viability on the fitted dose curve at most 10% of control; inactive means the rest
Summary of the method: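 Complex tumor spheroids combined malignant cells with endothelial cells and mesenchymal stem cells. DNA-damaging drugs and DNA repair inhibitors were tested alone and in combination, at half-log dilutions down from clinical Cmax (top 10 microM if Cmax unknown), 0.25% DMSO final.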

[2H]c1nc(C)nc([2H])c1-c1cc(NC[C@@H](C)c2cccc3c(C(=O)NC)ccnc23)ncn1 + CC[C@@]1(O)C(=O)OCc2c1cc1n(c2=O)Cc2cc3c(CN(C)C)c(O)ccc3nc2-1
> 7.50: pIC50 (second compound 0.00949 µM) | pIC50 (second compound 0.03 µM) | pIC50 (second compound 0.0949 µM) | pIC50 (second compound 0.3 µM)
< 5.00: pIC50 (second compound 0.003 µM)
inactive: viability, T/C (second compound 0.003 µM, first compound 0.0316 µM) 93.3% | viability, T/C (second compound 0.003 µM, first compound 0.1 µM) 89.6% | viability, T/C (second compound 0.003 µM, first compound 0.316 µM) 93.9% | viability, T/C (second compound 0.003 µM, first compound 1 µM) 87.1% | viability, T/C (second compound 0.003 µM, first compound 3.16 µM) 85.1% | viability, T/C (second compound 0.003 µM, first compound 10 µM) 78.5% | viability, T/C (second compound 0.00949 µM, first compound 0.0316 µM) 25.2% | viability, T/C (second compound 0.00949 µM, first compound 0.1 µM) 22.2% | viability, T/C (second compound 0.00949 µM, first compound 0.316 µM) 24% | viability, T/C (second compound 0.00949 µM, first compound 1 µM) 21.4% | viability, T/C (second compound 0.00949 µM, first compound 3.16 µM) 19.7% | viability, T/C (second compound 0.00949 µM, first compound 10 µM) 17.1%
active: viability, T/C (second compound 0.03 µM, first compound 0.0316 µM) 3.65% | viability, T/C (second compound 0.03 µM, first compound 0.1 µM) 4.05% | viability, T/C (second compound 0.03 µM, first compound 0.316 µM) 3.87% | viability, T/C (second compound 0.03 µM, first compound 1 µM) 4.16% | viability, T/C (second compound 0.03 µM, first compound 3.16 µM) 4.24% | viability, T/C (second compound 0.03 µM, first compound 10 µM) 4.06% | viability, T/C (second compound 0.0949 µM, first compound 0.0316 µM) 2.96% | viability, T/C (second compound 0.0949 µM, first compound 0.1 µM) 2.98% | viability, T/C (second compound 0.0949 µM, first compound 0.316 µM) 2.95% | viability, T/C (second compound 0.0949 µM, first compound 1 µM) 3.01% | viability, T/C (second compound 0.0949 µM, first compound 3.16 µM) 2.71% | viability, T/C (second compound 0.0949 µM, first compound 10 µM) 3.38% | viability, T/C (second compound 0.3 µM, first compound 0.0316 µM) 2.42% | viability, T/C (second compound 0.3 µM, first compound 0.1 µM) 2.48% | viability, T/C (second compound 0.3 µM, first compound 0.316 µM) 2.48% | viability, T/C (second compound 0.3 µM, first compound 1 µM) 2.74% | viability, T/C (second compound 0.3 µM, first compound 3.16 µM) 2.32% | viability, T/C (second compound 0.3 µM, first compound 10 µM) 2.21%

O=C(c1cc(Cc2n[nH]c(=O)c3ccccc23)ccc1F)N1CCN(C(=O)C2CC2)CC1 + COc1cc2c(cc1O)CCNC21CSC2c3c(OC(C)=O)c(C)c4c(c3C(COC1=O)N1C(O)C3Cc5cc(C)c(OC)c(O)c5C(C21)N3C)OCO4
5.72: pIC50 (second compound 94.9 pM)
5.48: pIC50 (second compound 30 pM)
> 7.02: pIC50 (second compound 0.0003 µM) | pIC50 (second compound 0.000949 µM) | pIC50 (second compound 0.003 µM)
inactive: viability, T/C (second compound 30 pM, first compound 0.0949 µM) 99.7% | viability, T/C (second compound 30 pM, first compound 0.3 µM) 98.4% | viability, T/C (second compound 30 pM, first compound 0.949 µM) 92.7% | viability, T/C (second compound 30 pM, first compound 3 µM) 53.4% | viability, T/C (second compound 30 pM, first compound 9.49 µM) 14.2% | viability, T/C (second compound 94.9 pM, first compound 0.0949 µM) 85.8% | viability, T/C (second compound 94.9 pM, first compound 0.3 µM) 82.7% | viability, T/C (second compound 94.9 pM, first compound 0.949 µM) 70.5% | viability, T/C (second compound 94.9 pM, first compound 3 µM) 37.2% | viability, T/C (second compound 94.9 pM, first compound 9.49 µM) 7.9% | viability, T/C (second compound 0.0003 µM, first compound 0.0949 µM) 15.1% | viability, T/C (second compound 0.0003 µM, first compound 0.3 µM) 16.9% | viability, T/C (second compound 0.0003 µM, first compound 0.949 µM) 12.9%
active: viability, T/C (second compound 30 pM, first compound 30 µM) 9.96% | viability, T/C (second compound 94.9 pM, first compound 30 µM) 7.02% | viability, T/C (second compound 0.0003 µM, first compound 3 µM) 7.99% | viability, T/C (second compound 0.0003 µM, first compound 9.49 µM) 5.74% | viability, T/C (second compound 0.0003 µM, first compound 30 µM) 4.63% | viability, T/C (second compound 0.000949 µM, first compound 0.0949 µM) 2.17% | viability, T/C (second compound 0.000949 µM, first compound 0.3 µM) 2.25% | viability, T/C (second compound 0.000949 µM, first compound 0.949 µM) 2.87% | viability, T/C (second compound 0.000949 µM, first compound 3 µM) 2.49% | viability, T/C (second compound 0.000949 µM, first compound 9.49 µM) 2.27% | viability, T/C (second compound 0.000949 µM, first compound 30 µM) 2.54% | viability, T/C (second compound 0.003 µM, first compound 0.0949 µM) 6.83% | viability, T/C (second compound 0.003 µM, first compound 0.3 µM) 0.52% | viability, T/C (second compound 0.003 µM, first compound 0.949 µM) 0.47% | viability, T/C (second compound 0.003 µM, first compound 3 µM) 0.53% | viability, T/C (second compound 0.003 µM, first compound 9.49 µM) 0.55% | viability, T/C (second compound 0.003 µM, first compound 30 µM) 0.95%
